Non-standard residues stand in square brackets, D forms with d. Residues, ends and D or L forms follow the SMILES beside them. *: point of attachment. X1 = O=C(CCCC[C@@H]1SC[C@@H]2NC(=O)N[C@@H]21)NCCCOCCOCCOCCCN*; PEG12 = NCCOCCOCCOCCOCCOCCOCCOCCOCCOCCOCCOCCOCCC(=O)O
Experiments:
[1] = test system: normal human bronchial epithelial cell line (HBEC); experiment: Cell internalization by flow cytometry in normal control cells; type: cell-based; conditions: 50 nM, 1 h
From the text: Optimizing MGS4 as a monomer is efficient but the optimal valency of the truncated peptide may be different than that of the full-length peptide. The peptide was synthesized as a monomer (MGS4_V8), dimer (MGS4_V9), and tetramer (MGS4_V10). To obtain quantitative data, we moved from measuring the relative fluorescence of dye-labeled peptide to the determination of the average number of dye molecules internalized per cell. […] The dimer MGS4_V9 has an EC50 7-fold lower indicating there is a synergistic effect in going from a monomer to a dimer (Fig. 2a and Table 2). However, there is only a 2-fold decrease in going from a dimer to a tetrameric peptide (MGS4_V10). We also calculated the EC50 on three other NSCLC cell lines (Table 2 and Supplementary Figure 3). […]
Non-internalized peptide was removed, and the mean number of peptides internalized per cell was determined to calculate the EC50. […] Error bars, in black, represent standard error measurements and are below the height of the symbols in some cases. b The average number of peptide molecules per cell at 50 nM at 1 h was determined on four NSCLC cell lines and one normal human bronchial epithelial cell line (HBEC). […]
Biotinylated peptide was conjugated to streptavidin-R-phycoerythrin or streptavidin-Alexa Fluor 647 (1:1 molar ratio) for 30 min. […] Flow cytometry was performed on a BD FACSCelesta, and data were analyzed on Flowing software. […]

Stability in human serum = type: in vitro ADME; conditions: 100% human serum, 48 h, 37 °C, serum proteins precipitated, analytical HPLC, MALDI TOF/TOF MS
Protocol: To address if acetylation is effective in reducing serum degradation of MGS4, acetylated (MGS4_V8) and non-acetylated (MGS4_V4) peptides were dissolved in human serum and incubated for 48 h at 37 °C. The peptides were monitored by analytical HPLC, and products were verified via MALDI TOF/TOF™ MS. […] Instead, a mixture of peptide fragments is detected, none of which correspond to the mass of the starting peptide (Supplemental Table 1 and Supplemental Fig. 2). The major products are shorter fragments corresponding to the loss of the five N-terminal amino acids. Fragments related to QSFYT-PEG11, SFYT-PEG11 and FYT-PEG11 are observed.
Supplemental Figure 1. […]
M GS4_V4 (non-acetylated, panel a) and M GS4_V8 (acetylated, panel b ) were incubated in 100% human serum for 0 and 48-hours. Serum proteins were precipitated, and the peptide was analyzed by analytical
HPLC. The mass of the peptide and degradation products were determined by MALDI MS and are […]
MGS4_V8, MGS4_V9, or MGS4_V10 were conjugated with streptavidin-Alexa Fluor 650 and were incubated with the indicated cell line for 1 hour. Non-internalized peptide was rem ov ed, and the mean number of peptides internalized per cell was determined to calculate the EC50. […]
Supplemental Figure 4 : Peptide-Streptavidin conjugates are nontoxic to cells. a. […] After 72 hours, viability was measured. […]

Compound: CC(=O)N[C@@H](Cc1ccccc1)C(=O)N[C@@H](Cc1c[nH]cn1)C(=O)N[C@@H](C)C(=O)N[C@H](C(=O)N1CCC[C@H]1C(=O)N[C@@H](CCC(N)=O)C(=O)N[C@@H](CO)C(=O)N[C@@H](Cc1ccccc1)C(=O)N[C@@H](Cc1ccc(O)cc1)C(=O)N[C@H](C(=O)NCCOCCOCCOCCOCCOCCOCCOCCOCCOCCOCCOCCOCCC(=O)N[C@@H](CCC(=O)NCCCOCCOCCOCCCNC(=O)CCCC[C@@H]1SC[C@@H]2NC(=O)N[C@@H]21)C(N)=O)[C@@H](C)O)C(C)C [MGS4_V8] (Ac-FHAVPQSFYT[PEG12]E(X1)-NH2)
- internalization in normal cells [1]: minimal internalization
- peptide after incubation in human serum (Stability in human serum): only full-length peptide observed

Source: paper PMC9845330 (Communications Biology, 2023)
